Measured values from patent US20130245081A1, “Compositions and Methods for Treating Amyotrophic Lateral Sclerosis” (priority 2009, published 2013).
Several values for one entry are separate records, joined by “and”; a condition that tells them apart may be missing. Equal entries are not always repeated. Where two headings read alike, the source gives them in different places.

Test system: patients with ALS

In the case of `CCCN[C@@H]1CCc2nc(N)sc2C1` [dexpramipexole, (6R)-2-amino-4,5,6,7-tetrahydro-6-(propylamino)benzothiazole], the “Unadjusted Slope Estimate, Bulbar” value (50 mg) is reported as −0.364, the “Unadjusted Slope Estimate, Fine” value (50 mg) is reported as −0.311 and the “Unadjusted Slope Estimate, Gross” value (50 mg) is reported as −0.305. For the same compound, the “Unadjusted Slope Estimate, Resp” value (50 mg) was −0.270, the “Zero Imputation Slope Estimate, Bulbar” value (50 mg) was −0.578 and the “Zero Imputation Slope Estimate, Fine” value (50 mg) was −0.440. The “Zero Imputation Slope Estimate, Gross” value (50 mg) was −0.390, the “Zero Imputation Slope Estimate, Resp” value (50 mg) was −0.575 and the “joint rank test of survival and ALSFRS-R (generalized Gehan Wilcoxon test)” value (50 mg versus 300 mg, through Week 28, p=0.046) was “statistically significant difference”. The “McGill SIS, Mean (SE)” value (50 mg, Endpoint of Part 2) was 5.9 (0.38), the “McGill SIS, Mean Δ (SE) from baseline” value (50 mg, Endpoint of Part 2) was −0.5 (0.27) and the “McGill SIS, Median Δ” value (50 mg, Endpoint of Part 2) was 0.0. The “Upright Vital Capacity, Mean (SE)” value (50 mg, Endpoint of Part 2) was 62.2 (4.19) % predicted, the “Upright Vital Capacity, Mean Δ (SE) from baseline of Part 2” value (shortened to “Upright Vital Capacity, Mean Δ (SE)”) (50 mg, Endpoint of Part 2) was −14.6 (3.54) % predicted and the “Upright Vital Capacity, Median Δ” value (50 mg, Endpoint of Part 2) was −11.5 % predicted. The “McGill SIS, Mean (SE)” value (50 mg, Week 8) was 6.2 (0.37), the “McGill SIS, Mean Δ (SE) from baseline” value (50 mg, Week 8) was −0.2 (0.19) and the “McGill SIS, Median Δ” value (50 mg, Week 8) was 0.0. The “Upright Vital Capacity, Mean (SE)” value (50 mg, Week 8) was 73.7 (2.92) % predicted, the “Upright Vital Capacity, Mean Δ (SE)” value (50 mg, Week 8) was −3.2 (1.67) % predicted and the “Upright Vital Capacity, Median Δ” value (50 mg, Week 8) was −1.9 % predicted. The “McGill SIS, Mean (SE)” value (50 mg, Week 12) was 6.5 (0.34), the “McGill SIS, Mean Δ (SE) from baseline” value (50 mg, Week 12) was −0.1 (0.20) and the “McGill SIS, Median Δ” value (50 mg, Week 12) was 0.0. The “Upright Vital Capacity, Mean (SE)” value (50 mg, Week 12) was 72.9 (3.82) % predicted, the “Upright Vital Capacity, Mean Δ (SE)” value (50 mg, Week 12) was −4.0 (2.19) % predicted and the “Upright Vital Capacity, Median Δ” value (50 mg, Week 12) was −3.1 % predicted. The “McGill SIS, Mean (SE)” value (50 mg, Week 16) was 6.1 (0.37), the “McGill SIS, Mean Δ (SE) from baseline” value (50 mg, Week 16) was −0.3 (0.22) and the “McGill SIS, Median Δ” value (50 mg, Week 16) was 0.0. The “McGill SIS, Mean (SE)” value (50 mg, Week 20) was 6.1 (0.33), the “McGill SIS, Mean Δ (SE) from baseline” value (50 mg, Week 20) was −0.7 (0.22) and the “McGill SIS, Median Δ” value (50 mg, Week 20) was −1.0. For the same compound, the “Upright Vital Capacity, Mean (SE)” value (50 mg, Week 20) was 75.8 (4.02) % predicted, the “Upright Vital Capacity, Mean Δ (SE)” value (50 mg, Week 20) was −6.0 (3.36) % predicted and the “Upright Vital Capacity, Median Δ” value (50 mg, Week 20) was −7.2 % predicted. The “McGill SIS, Mean (SE)” value (50 mg, Week 24) was 6.3 (0.43), the “McGill SIS, Mean Δ (SE) from baseline” value (50 mg, Week 24) was −0.4 (0.23) and the “McGill SIS, Median Δ” value (50 mg, Week 24) was 0.0. The “McGill SIS, Mean (SE)” value (50 mg, Week 28) was 5.9 (0.45), the “McGill SIS, Mean Δ (SE) from baseline” value (50 mg, Week 28) was −0.7 (0.23) and the “McGill SIS, Median Δ” value (50 mg, Week 28) was 0.0. For the same compound, the “Upright Vital Capacity, Mean (SE)” value (50 mg, Week 28) was 69.5 (3.79) % predicted, the “Upright Vital Capacity, Mean Δ (SE)” value (50 mg, Week 28) was −12.4 % predicted and −12.4 (3.00) % predicted and the “Upright Vital Capacity, Median Δ” value (50 mg, Week 28) was −10.4 % predicted. For the same compound, the “decline in ALSFRS-R scores (repeated measures mixed effect model)” value (50 mg, Week 28) was −7.05, the “subjects who died (incl. after discontinuation)” value (50 mg, double-blind period through Week 28) was 9 (19%) N (%) and 9 N (%) and the “total number of deaths” value (50 mg, first 24-week randomized active treatment period) was 7. The “did not require tracheostomy and did not die” value (50 mg, through Week 28) was 81%, the “mean change from baseline in ALSFRS-R total score” value (50 mg, through Week 28) was −6.5 and the “slope estimate of ALSFRS-R scores (linear mixed effects model)” value (50 mg, through Week 28) was −1.283. For the same compound, the “slope of ALSFRS-R total scores, zero imputed for first post-death visit” value (50 mg, through Week 28) was −2.05, the “slope of upright vital capacity (linear mixed effects, unadjusted)” value (50 mg, through Week 28) was −2.452 and the “subjects with feeding tubes placed” value (50 mg, through Week 28) was 9 (19%) N (%). For the same compound, the “Unadjusted Slope Estimate, Bulbar” value (300 mg) was −0.310, the “Unadjusted Slope Estimate, Fine” value (300 mg) was −0.211 and the “Unadjusted Slope Estimate, Gross” value (300 mg) was −0.320. For the same compound, the “Unadjusted Slope Estimate, Resp” value (300 mg) was −0.186, the “Zero Imputation Slope Estimate, Bulbar” value (300 mg) was −0.376 and the “Zero Imputation Slope Estimate, Fine” value (300 mg) was −0.238. For the same compound, the “Zero Imputation Slope Estimate, Gross” value (300 mg) was −0.338, the “Zero Imputation Slope Estimate, Resp” value (300 mg) was −0.255 and the “attenuation of decline in vital capacity (adjusted slopes)” value (300 mg compared with 50 mg) was 21% and 18%. The “Unadjusted Slope Estimate, Bulbar, % reduction” value (300 mg vs 50 mg) was 14.84%, the “Unadjusted Slope Estimate, Fine, % reduction” value (300 mg vs 50 mg) was 32.15% and the “Unadjusted Slope Estimate, Gross, % reduction” value (300 mg vs 50 mg) was −4.92%. For the same compound, the “Unadjusted Slope Estimate, Resp, % reduction” value (300 mg vs 50 mg) was 31.11%, the “Zero Imputation Slope Estimate, Bulbar, % reduction” value (300 mg vs 50 mg) was 34.95% and the “Zero Imputation Slope Estimate, Fine, % reduction” value (300 mg vs 50 mg) was 45.91%.
